Patent US20260365692A1, “COMPOSITIONS COMPRISING PROTEINS DISSOLVED IN FLUORINATED SOLVENTS, AND METHODS OF MAKING AND USING THE SAME” (priority 2022, published 2026)

Legend:
eGFP-PC9 lung cells = assay: Imaging of eGFP-PC9 cells with PFNA; type: cell-based, human; settings: PFNA-treated cells
Description: FIG. 21 depicts confocal micrographs of eGFP-PC9 cells in the absence (top) and presence (bottom) of PFNA.
FIG. 22 depicts an analysis of average cellular fluorescence (in relative fluorescence units, RFU) for cells treated without/with PFNA for 1, 2 and 5 hours. Statistical significance was determined using unpaired t-test, with n.s.=not significant, * p<0.05, ** p<0.01 and *** p<0.001.
FIG. 23 depicts analysis of cellular fluorescent area (in relative area units, RAU) for cells treated without/with PFNA for 1, 2 and 5 hours. Statistical significance was determined using unpaired t-test, with n.s.=not significant, * p<0.05, ** p<0.01 and *** p<0.001.
Imaging studies were performed to interpret the effect of PFNA exposure on the transport of endogenous proteins in cells. For these experiments, stably transfected eGFP-PC9 lung cells were prepared to track the time dependent sub-cellular localization of eGFP as a model protein target (FIGS. 21, […]).

[1] = test system: green fluorescent protein (GFP); assay: Circular dichroism with PFNA, GFP; settings: increasing PFNA concentration
From the text: FIGS. 14A-14L depict circular dichroism spectra of Hb (FIG. 14A), GFP (FIG. 14B), BSA (FIG. 14C), β-Gal (FIG. 14D), rabbit serum IgG (FIG. 14E), transferrin (FIG. 14F), and urease (FIG. 14G) in the absence (black line) or presence (dashed lines) of PFNA. Increasing dash sequence indicated higher concentration of PFNA. FIG. 14H: Change in molar ellipticity at 216 nm (Δθ216) of PFNA-treated proteins, relative to native controls, as a function of increasing ligand concentration. FIG. 14I: Percentage change in secondary structural motifs of Hb, β-Gal and IgG between the native protein and 1 mM PFNA treated samples. β-sheet structures were further differentiated into parallel and antiparallel conformations. Hb, β-Gal and IgG were prioritized for analysis based on their significant spectral shift in the presence of 1 mM PFNA. FIGS. 14J-14L: Sensograms for BSA (FIG. 14J), β-gal (FIG. 14K), and IgG (FIG. 14L) showing relative response (R.U.) at 10, 25, 50, 75, and 100 μM.
To explore PFNA-mediated changes in protein structure, dose-response circular dichroism (CD) studies were performed (FIG. 14A-14G). […] Remarkably, these structural changes endured even at sub-stoichiometric PFNA:protein ratios (see 0.001 mM PFNA in […]; protein concentration was constant at 0.01 mM).

A549 cells = assay: Protein uptake in A549 cells, Texas Red-labeled Transferrin; type: cell-based, human; settings: PFNA, 24 hours of incubation
Description: FIGS. 19A-19B depicts the uptake of Texas Red-labeled Transferrin in human lung A549 cells after 2 and 24 hours of incubation in the absence/presence of PFNA. Results are shown in relative fluorescence units (RFU).
Multiplexed in vitro assays were employed to probe the influence of PFNA interactions on protein uptake and transport in cells. A549 and PC9 human lung cells were prioritized for these assays given that pulmonary tissue is a primary site of perfluoroalkyl bioaccumulation in humans (Reference: 63). Before initiating experiments, cellular toxicity assays established a maximum tolerated dose of PFNA to avoid confounding protein transport experiments with substantive cell death. Protein uptake was then studied using green fluorescent protein (GFP) and bovine serum albumin (BSACy5) as model biologics that employ non-specific pinocytic mechanisms for cellular entry.

O=C(O)C(F)(F)C(F)(F)C(F)(F)C(F)(F)C(F)(F)C(F)(F)C(F)(F)C(F)(F)F [Compound 7, perfluoronanonic acid]
intracellular protein localization (eGFP-PC9 lung cells): remained relatively unchanged | eGFP expression (eGFP-PC9 lung cells; particularly 1 hour): significant reduction | CD structural change, GFP (θ216 nm) [1]: slight enhancement of β-sheet structure | increase in cellular fluorescence (Transferrin uptake) compared to native protein (A549 cells): 43%
